Reference: patent publication US20260248822A1, “METHOD AND COMPOSITION FOR THE TREATMENT OF CANCER” (IMPACT HEALTH GLOBAL LTD., priority 2023, published 2026)
Where two headings read alike, the source gives them in different places.

Key:
4T1 cells = assay: MTT cell viability assay in 4T1 cells; type: cell-based, Mouse; conditions: for cancer cell viability, dose dependence: 4T1 cells, 0.5, 1, 1.5 and 2 mM, compared to the control; for cytotoxicity at 2000 µM: Mus musculus, read-out: reduction of cell viability compared to the control
Procedure: Mouse breast carcinoma model (4T1 cells) were cultured in the presence of taraxasterol, vitexin, sinigrin or a mixture of all these molecules, at the indicated concentrations (0.5, 1, 1.5, and 2 mM), for 48 hours. Cell viability was determined by MTT colorimetric assay, in which a yellow tetrazole is reduced to purple formazan in living cells. The resultant color was measured at 450 nm. Reduced viability of cancer cells was a marker for the efficacy of the treatment.

tumors = conditions: mouse, in vivo; cited from earlier work
human lung cancer cells = conditions: cited from earlier work
human colon cancer cells = conditions: cited from earlier work

Row | Structure (SMILES) | cancer cell viability, dose dependence (4T1 cells; 48 hours) | cytotoxicity at 2000 µM (4T1 cells; 4T1 cells, 2 mM, 48 hours, MTT) [%] | growth of tumors in mice (tumors) | apoptosis in human lung cancer cells (human lung cancer cells) | apoptosis in human colon cancer cells (human colon cancer cells) | tumor growth in human colon cancer cells (human colon cancer cells) | cytotoxicity at 2000 µM (4T1 cells; 4T1, 48 h) [%]
1 | O=c1cc(-c2ccc(O)cc2)oc2c([C@@H]3O[C@H](CO)[C@@H](O)[C@H](O)[C@H]3O)c(O)cc(O)c12 [vitexin, 8-(β-D-glucopyranosyl)-4′,5,7-trihydroxyflavone] | reduced cancer cell viability dose dependently | 20 | suppresses the growth of tumors | induces apoptosis | – | – | –
2 | C=C1CC[C@]2(C)CC[C@]3(C)[C@H](CC[C@@H]4[C@@]5(C)CC[C@H](O)C(C)(C)[C@@H]5CC[C@]43C)[C@H]2[C@@H]1C [taraxasterol, (3S,4aR,6aR,6bR,8aR,12S,12aR,12bR,14aR,14bR)-4,4,6a,6b,8a,12, 14b-heptamethyl-11-methylidenedocosahydropicen-3-ol] | reduced cancer cell viability dose dependently | 29 | – | – | induces apoptosis | suppresses tumor growth | –
3 | C=CC/C(=N/OS(=O)(=O)O)S[C@@H]1O[C@H](CO)[C@@H](O)[C@H](O)[C@H]1O [sinigrin, (Z)-N-[1-(β-D-glucopyranosylsulfanyl)but-3-en-1-ylidene] hydroxylamine-O-sulfonic acid] | reduced cancer cell viability dose dependently | – | – | induces apoptosis | – | – | 23
